Laboratory results taken from US20050239656A1, “Pyridine compounds or salts thereof and herbicides containing the same” (priority 2002, published 2005).

test system: barnyardgrass; test: Test Example 1: foliage treatment, upland pot test; type: in vivo, Echinochloa crus-galli L.; details: active ingredient 500 g/ha, observed 18th to 23rd day, 0 = non-treated, 100 = complete kill
Method in brief: (§1)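 Crops and weeds were sown in upland soil pots and sprayed post-emergence at set leaf stages (soybean 0.1–0.4, wheat 1.3–2.4, rice 1.2–2.6, barnyardgrass 1.3–2.8). Formulated compound was applied in 500 L/ha water with 0.1% spreader. Growth control (0–100%) was rated visually 18–23 days later.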

| Structure (SMILES) | Growth controlling degree (%) Barnyardgrass |
| --- | --- |
| COCC(=O)N(C)C(c1cnccc1C(F)(F)F)C(C)C (stereo not drawn) [I-195] | 70% |
| CC(C)C(c1cnccc1C(F)(F)F)N(C)C(=O)C(Br)C(C)(C)C (stereo not drawn) [I-196] | 60% |

test system: crabgrass; test: Test Example 1: foliage treatment, upland pot test; type: in vivo, Digitaria sanguinalis L.; details: active ingredient 500 g/ha, observed 18th to 23rd day, 0 = non-treated, 100 = complete kill

| Structure (SMILES) | Growth controlling degree (%) Crabgrass |
| --- | --- |
| COCC(=O)N(C)C(c1cnccc1C(F)(F)F)C(C)C (stereo not drawn) [I-195] | 80% |
| CC(C)C(c1cnccc1C(F)(F)F)N(C)C(=O)C(Br)C(C)(C)C (stereo not drawn) [I-196] | 60% |

test system: green foxtail; test: Test Example 1: foliage treatment, upland pot test; type: in vivo, Setaria viridis L.; details: active ingredient 500 g/ha, observed 18th to 23rd day, 0 = non-treated, 100 = complete kill

| Structure (SMILES) | Growth controlling degree (%) Green foxtail |
| --- | --- |
| COCC(=O)N(C)C(c1cnccc1C(F)(F)F)C(C)C (stereo not drawn) [I-195] | 60% |
| CC(C)C(c1cnccc1C(F)(F)F)N(C)C(=O)C(Br)C(C)(C)C (stereo not drawn) [I-196] | 40% |

test system: redroot pigweed; test: Test Example 1: foliage treatment, upland pot test; type: in vivo, Amaranthus retroflexus L.; details: active ingredient 500 g/ha, observed 18th to 23rd day, 0 = non-treated, 100 = complete kill

| Structure (SMILES) | Growth controlling degree (%) Redroot pigweed |
| --- | --- |
| COCC(=O)N(C)C(c1cnccc1C(F)(F)F)C(C)C (stereo not drawn) [I-195] | 80% |
| CC(C)C(c1cnccc1C(F)(F)F)N(C)C(=O)C(Br)C(C)(C)C (stereo not drawn) [I-196] | 50% |

test system: prickly sida; test: Test Example 1: foliage treatment, upland pot test; type: in vivo, Sida spinosa L.; details: active ingredient 500 g/ha, observed 18th to 23rd day, 0 = non-treated, 100 = complete kill

| Structure (SMILES) | Growth controlling degree (%) Prickly sida |
| --- | --- |
| COCC(=O)N(C)C(c1cnccc1C(F)(F)F)C(C)C (stereo not drawn) [I-195] | 70% |
| CC(C)C(c1cnccc1C(F)(F)F)N(C)C(=O)C(Br)C(C)(C)C (stereo not drawn) [I-196] | 70% |

test system: velvetleaf; test: Test Example 1: foliage treatment, upland pot test; type: in vivo, Abutilon theophrasti MEDIC.; details: active ingredient 500 g/ha, observed 18th to 23rd day, 0 = non-treated, 100 = complete kill

| Structure (SMILES) | Growth controlling degree (%) Velvetleaf |
| --- | --- |
| COCC(=O)N(C)C(c1cnccc1C(F)(F)F)C(C)C (stereo not drawn) [I-195] | 60% |
| CC(C)C(c1cnccc1C(F)(F)F)N(C)C(=O)C(Br)C(C)(C)C (stereo not drawn) [I-196] | 10% |

test system: rice; test: Test Example 1: foliage treatment, upland pot test; type: in vivo, Oryza sativa L.; details: crop, active ingredient 500 g/ha, observed 18th to 23rd day, 0 = non-treated, 100 = complete kill
Method in brief: as §1

| Structure (SMILES) | Growth controlling degree (%) Rice |
| --- | --- |
| COCC(=O)N(C)C(c1cnccc1C(F)(F)F)C(C)C (stereo not drawn) [I-195] | 70% |
| CC(C)C(c1cnccc1C(F)(F)F)N(C)C(=O)C(Br)C(C)(C)C (stereo not drawn) [I-196] | 40% |

test system: wheat; test: Test Example 1: foliage treatment, upland pot test; type: in vivo, Triticum spp.; details: crop, active ingredient 500 g/ha, observed 18th to 23rd day, 0 = non-treated, 100 = complete kill
Method in brief: as §1

| Structure (SMILES) | Growth controlling degree (%) wheat |
| --- | --- |
| COCC(=O)N(C)C(c1cnccc1C(F)(F)F)C(C)C (stereo not drawn) [I-195] | 30% |
| CC(C)C(c1cnccc1C(F)(F)F)N(C)C(=O)C(Br)C(C)(C)C (stereo not drawn) [I-196] | 40% |

test system: corn; test: Test Example 1: foliage treatment, upland pot test; type: in vivo, Zea mays L.; details: crop, active ingredient 500 g/ha, observed 18th to 23rd day, 0 = non-treated, 100 = complete kill
Method in brief: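 Corn seeds were sown in upland field soil held in a 1/170,000 ha pot and grown to the 2.1 to 3.2 leaf stage. A wettable powder or emulsifiable concentrate of the test compound was diluted with water at 500 L/ha, given 0.1% (v/v) agricultural spreader, and sprayed onto the foliage with a small sprayer. Growth controlling degree (%) was scored visually 18th to 23rd days later, from 0 (non-treated) to 100 (complete kill).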

| Structure (SMILES) | Growth controlling degree (%) Corn |
| --- | --- |
| COCC(=O)N(C)C(c1cnccc1C(F)(F)F)C(C)C (stereo not drawn) [I-195] | 10% |
| CC(C)C(c1cnccc1C(F)(F)F)N(C)C(=O)C(Br)C(C)(C)C (stereo not drawn) [I-196] | 10% |

test system: soybean; test: Test Example 1: foliage treatment, upland pot test; type: in vivo, Glycine max Merr.; details: crop, active ingredient 500 g/ha, observed 18th to 23rd day, 0 = non-treated, 100 = complete kill
Method in brief: as §1

| Structure (SMILES) | Growth controlling degree (%) Soybean |
| --- | --- |
| COCC(=O)N(C)C(c1cnccc1C(F)(F)F)C(C)C (stereo not drawn) [I-195] | 60% |
| CC(C)C(c1cnccc1C(F)(F)F)N(C)C(=O)C(Br)C(C)(C)C (stereo not drawn) [I-196] | 40% |

test system: barnyardgrass; test: Test Example 2: soil surface treatment, upland pot test; type: in vivo, Echinochloa crus-galli L.; details: active ingredient 250 g/ha, observed 20th to 28th day
Method in brief: (§2)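 Visual growth-control ratings (0 = untreated, 100 = complete kill) were taken 20–28 days after soil surface application. The spray was made one day post-sowing in upland soil pots, using formulated compound diluted with water at 1,500 L/ha at a set active ingredient rate.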

| Structure (SMILES) | Growth controlling degree (%) Barnyardgrass |
| --- | --- |
| COCC(=O)N(C)C(c1cnccc1C(F)(F)F)C(C)C (stereo not drawn) [I-195] | 98% |
| CC(C)C(c1cnccc1C(F)(F)F)N(C)C(=O)C(Br)C(C)(C)C (stereo not drawn) [I-196] | 70% |

test system: crabgrass; test: as above; type: in vivo, Digitaria sanguinalis L.; details: active ingredient 250 g/ha, observed 20th to 28th day
Method in brief: as §2

| Structure (SMILES) | Growth controlling degree (%) Crabgrass |
| --- | --- |
| COCC(=O)N(C)C(c1cnccc1C(F)(F)F)C(C)C (stereo not drawn) [I-195] | 98% |
| CC(C)C(c1cnccc1C(F)(F)F)N(C)C(=O)C(Br)C(C)(C)C (stereo not drawn) [I-196] | 90% |

test system: green foxtail; test: as above; type: in vivo, Setaria viridis L.; details: active ingredient 250 g/ha, observed 20th to 28th day
Method in brief: as §2

| Structure (SMILES) | Growth controlling degree (%) Green foxtail |
| --- | --- |
| COCC(=O)N(C)C(c1cnccc1C(F)(F)F)C(C)C (stereo not drawn) [I-195] | 60% |
| CC(C)C(c1cnccc1C(F)(F)F)N(C)C(=O)C(Br)C(C)(C)C (stereo not drawn) [I-196] | 95% |

test system: redroot pigweed; test: as above; type: in vivo, Amaranthus retroflexus L.; details: active ingredient 250 g/ha, observed 20th to 28th day
Method in brief: as §2

| Structure (SMILES) | Growth controlling degree (%) Redroot pigweed |
| --- | --- |
| COCC(=O)N(C)C(c1cnccc1C(F)(F)F)C(C)C (stereo not drawn) [I-195] | 30% |
| CC(C)C(c1cnccc1C(F)(F)F)N(C)C(=O)C(Br)C(C)(C)C (stereo not drawn) [I-196] | 60% |

test system: prickly sida; test: as above; type: in vivo, Sida spinosa L.; details: active ingredient 250 g/ha, observed 20th to 28th day
Method in brief: as §2

| Structure (SMILES) | Growth controlling degree (%) Prickly sida |
| --- | --- |
| COCC(=O)N(C)C(c1cnccc1C(F)(F)F)C(C)C (stereo not drawn) [I-195] | 30% |
| CC(C)C(c1cnccc1C(F)(F)F)N(C)C(=O)C(Br)C(C)(C)C (stereo not drawn) [I-196] | 60% |

test system: velvetleaf; test: as above; type: in vivo, Abutilon theophrasti MEDIC.; details: active ingredient 250 g/ha, observed 20th to 28th day
Method in brief: as §2

| Structure (SMILES) | Growth controlling degree (%) Velvetleaf |
| --- | --- |
| COCC(=O)N(C)C(c1cnccc1C(F)(F)F)C(C)C (stereo not drawn) [I-195] | 10% |
| CC(C)C(c1cnccc1C(F)(F)F)N(C)C(=O)C(Br)C(C)(C)C (stereo not drawn) [I-196] | 30% |

test system: rice; test: as above; type: in vivo, Oryza sativa L.; details: active ingredient 250 g/ha, observed 20th to 28th day
Method in brief: as §2

| Structure (SMILES) | Growth controlling degree (%) Rice |
| --- | --- |
| COCC(=O)N(C)C(c1cnccc1C(F)(F)F)C(C)C (stereo not drawn) [I-195] | 40% |
| CC(C)C(c1cnccc1C(F)(F)F)N(C)C(=O)C(Br)C(C)(C)C (stereo not drawn) [I-196] | 30% |

test system: wheat; test: as above; type: in vivo, Triticum spp.; details: active ingredient 250 g/ha, observed 20th to 28th day
Method in brief: as §2

| Structure (SMILES) | Growth controlling degree (%) wheat |
| --- | --- |
| COCC(=O)N(C)C(c1cnccc1C(F)(F)F)C(C)C (stereo not drawn) [I-195] | 10% |
| CC(C)C(c1cnccc1C(F)(F)F)N(C)C(=O)C(Br)C(C)(C)C (stereo not drawn) [I-196] | 10% |

test system: corn; test: as above; type: in vivo, Zea mays L.; details: active ingredient 250 g/ha, observed 20th to 28th day
Method in brief: as §2

| Structure (SMILES) | Growth controlling degree (%) Corn |
| --- | --- |
| COCC(=O)N(C)C(c1cnccc1C(F)(F)F)C(C)C (stereo not drawn) [I-195] | 20% |
| CC(C)C(c1cnccc1C(F)(F)F)N(C)C(=O)C(Br)C(C)(C)C (stereo not drawn) [I-196] | 30% |

test system: soybean; test: as above; type: in vivo, Glycine max Merr.; details: active ingredient 250 g/ha, observed 20th to 28th day
Method in brief: as §2

| Structure (SMILES) | Growth controlling degree (%) Soyabean |
| --- | --- |
| COCC(=O)N(C)C(c1cnccc1C(F)(F)F)C(C)C (stereo not drawn) [I-195] | 10% |
| CC(C)C(c1cnccc1C(F)(F)F)N(C)C(=O)C(Br)C(C)(C)C (stereo not drawn) [I-196] | 10% |

test system: barnyardgrass; test: Test Example 3: paddy pot test, application under submerged conditions; type: in vivo, Echinochloa crus-galli L.; details: active ingredient 250 g/ha; submerged application at 0.5 leaf stage; visually observed 14 days after application; 0 = non-treated, 100 = complete kill
Method in brief: (§3)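 Barnyardgrass and japanese bulrush sown in flooded paddy soil in greenhouse pots, japanese ribbon wapato tubers planted 1–2 days later; water depth kept at 3–4 cm. Diluted wettable powder or emulsifiable concentrate applied into water at 0.5-leaf or primary-leaf stage at set active-ingredient doses. Growth control scored visually at 14 days, 0 (untreated) to 100% (complete kill).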

| Structure (SMILES) | Growth controlling degree (%) Barnyardgrass |
| --- | --- |
| COCC(=O)N(C)C(c1cnccc1C(F)(F)F)C(C)C (stereo not drawn) [I-195] | 70% |
| CC(C)C(c1cnccc1C(F)(F)F)N(C)C(=O)C(Br)C(C)(C)C (stereo not drawn) [I-196] | 98% |

test system: japanese bulrush; test: as above; type: in vivo, Scirpus juncoides; details: active ingredient 250 g/ha; submerged application at 0.5 leaf stage; visually observed 14 days after application; 0 = non-treated, 100 = complete kill
Method in brief: as §3

| Structure (SMILES) | Growth controlling degree (%) Japanese bulrush |
| --- | --- |
| COCC(=O)N(C)C(c1cnccc1C(F)(F)F)C(C)C (stereo not drawn) [I-195] | 100% |
| CC(C)C(c1cnccc1C(F)(F)F)N(C)C(=O)C(Br)C(C)(C)C (stereo not drawn) [I-196] | 100% |

test system: japanese ribbon wapato; test: as above; type: in vivo, Sagittaria pygniaea; details: active ingredient 250 g/ha; submerged application at primary leaf stage; visually observed 14 days after application; 0 = non-treated, 100 = complete kill
Method in brief: as §3

| Structure (SMILES) | Growth controlling degree (%) Japanese ribbon wapato |
| --- | --- |
| COCC(=O)N(C)C(c1cnccc1C(F)(F)F)C(C)C (stereo not drawn) [I-195] | 80% |
| CC(C)C(c1cnccc1C(F)(F)F)N(C)C(=O)C(Br)C(C)(C)C (stereo not drawn) [I-196] | 50% |

test system: rice (var. Nihonbare); test: Test Example 3: paddy pot test, transplanted rice; type: in vivo, Oryza sativa L.; details: active ingredient 250 g/ha, applied 4th day after transplantation, visually observed 21st day after application, 0 = non-treated, 100 = complete kill
Method in brief: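 Rice (var. Nihonbare) at 2 leaf stage transplanted 3 cm deep into puddled paddy soil under 3–4 cm flooding; on day 4 after transplanting, diluted wettable powder or emulsifiable concentrate applied by pipette under submerged conditions at a set active-ingredient dose. Growth scored visually 21 days after application, 0 (untreated) to 100 (complete kill) %.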

| Structure (SMILES) | Growth controlling degree (%) Rice |
| --- | --- |
| COCC(=O)N(C)C(c1cnccc1C(F)(F)F)C(C)C (stereo not drawn) [I-195] | 20% |
| CC(C)C(c1cnccc1C(F)(F)F)N(C)C(=O)C(Br)C(C)(C)C (stereo not drawn) [I-196] | 10% |
